From patent US20240415878A1, “Compositions and Methods for Modulating Mitochondrial Function” (Board of Regents, The University of Texas System, priority 2021, published 2024)

What was measured:
HIF-1α = conditions: for HIF-1α stabilization: higher concentrations causing increased stabilization
Source text: HIF-1α is stabilized in Mrs2−/− mice. To examine the intrinsic role of Mrs2, Mrs2^−/− mice were challenged to LPS-induced inflammatory response. It was noticed that there was a barely detectable HIF-1α stabilization in control but a significant HIF-1α protein accumulation following LPS stimulation in Mrs2^−/− hepatocytes (Daw et al., 2020). […] It was envisioned that loss of Mrs2 in hepatocyte mitochondria might control metabolite fluxes that regulates HIF-1α stability under normoxic conditions. HIF-1α is the most commonly studied transcription factor that responds to oxygen tension and its stabilization controls numerous metabolic cascades, including glycolysis and oxidative phosphorylation (Kaelin and Ratcliffe, 2008; Lum et al., 2007; Semenza, 2013). A targeted metabolite screen was conducted to identify whether these metabolites potentially altered in Mrs2^−/− control HIF-1α stabilization. WT hepatocytes were treated with the PHD inhibitor FG-4952 for 6 hours in the presence or absence of metabolites (Buckley et al., 2012). […] Next it was explored whether citric acid mediated HIF-1α destabilization is a hydroxylation dependent mechanism by reconstitution of hydroxylation-dead mutant HIF-1α in COS-7 cells (Yan et al., 2007). […] Next tested the potency of citric acid and sodium citrate was tested. Hepatocytes isolated from WT or Mrs2^−/− mice were treated for 6 hours. HIF-1α stabilization was less affected by di- or tri-sodium citrate than by citric acid (FIG. 9G). […] The citric acid-mediated HIF-1α destabilization was intact in multiple chemical modalities (FIG. 9H) and the intracellular chelation of Mg^2+ ions suppressed FG-4952-induced HIF-1α stabilization (FIG. 9I). […] Furthermore, COS-7 cells were more sensitive to the HIF-1α stabilizing effect compared to hepatocytes. […] Next HIF-1α abundance was tested in liver tissues harvested from dietary cohorts. HIF-1α protein expression/stabilization was prominent in both Mrs2^−/− and Mrs2^−/− WD, whereas HIF-1α protein was nearly completely absent in WT WD (FIG. 9M). This supports the elevation of HIF-1α protein level as a key mechanism driving transcription changes in Mrs2^−/− WD livers.
Immunoblotting. Crushed tissues were homogenized in lysis buffer (ThermoFisher) on ice for one minute (20-30 strokes) using an automatic Dounce homogenizer set to 2000 RPM. Whole cell lysate was prepared in lysis buffer (Abcam) using 3 sets of 3-second sonication (power level 3) intervals on ice. Protein concentration was estimated using Pierce BCA assay kit and samples were prepared and heated for 90° C. for 5 minutes. Equal amounts of protein were loaded and separated on 4%-12% Bis-Tris polyacrylamide gel (Thermo Fisher Scientific), transferred to a PVDF membrane, blocked for 1-2 h using 5% fat free skim milk, washed and finally, probed with corresponding antibodies as specified below. Antibodies were from Cell Signaling Technology (HIF-1α and Hydroxy HIF-1α dilution 1:3000, MCU dilution 1.5000, MICU1 dilution 1:3000), Abcam Abcam (CPT-1a, CPT-2, OXPHOS cocktail dilution 1:3000), ZYMED Laboratories (β-actin; dilution 1:1,000), and Amersham (secondary antibodies conjugated with peroxidase). Development was done using X-ray film using a series of timed exposures and Image J was used for densitometric analysis on scanned film images.

[1] = system: mitochondrial Mg^2+ uptake; assay: Metabolite screen for ER Mg2+ depletion and mitochondrial Mg2+ uptake, Mag-Green confocal imaging of hepatocytes; assay type: cell-based, murine
Source text: Targeted Metabolite Screen Identifies Lactate as activator agonist for Mitochondrial Mg^2+ Uptake. To search for agonists that promote mitochondrial Mg^2+ ([Mg^2+]m) uptake, the inventors developed a cell-based confocal fluorescence imaging. As an initial feature, the inventors tested whether GPCR agonist-induced second messengers promote Mg^2+ dynamics. To discriminate intracellular Ca^2+ and Mg^2+ dynamics, MEFs were loaded with cell permeant Ca^2+ indicator, Fluo-4-AM or Mg^2+ indicator Mag green-AM followed by GPCR agonist, thrombin stimulation. […] It is established that intracellular Ca^2+ dynamics could be monitored using a wide range of fluorescent dyes or genetically encoded Ca^2+ indicators. Conversely, Mg^2+ sensitive indicators are very limited due to either lack of agonists or robust dynamic nature. To identify the agonist, primary murine hepatocytes were loaded with [Mg^2+]i indicator, cell permeant Mag Green-AM (5 μM). Subsequently, dye loaded hepatocytes were stimulated with major cellular metabolites and mitochondrial oxidative phosphorylation (OXPHOS) inhibitors following baseline recording. […] As depicted in FIG. 1B, the reciprocal mobilization of free Mg^2+ ion from ER to mitochondria was observed upon stimulation of Lactate (5 mM) in a temporal fashion. To confirm that lactate-induced Mag-Green signals are indeed measured from mitochondrial compartment, hepatocytes were simultaneously loaded with mitochondrial marker Mito-tracker Red and Mag-Green-AM (FIG. 1C-1F). […] Conversely, sodium lactate or lactic acid (5 mM) triggered a rapid depletion of ER signal with concomitant accumulation nucleus followed by mitochondrial elevation of Mag Green signal with a lag time of ˜25 s (FIG. 1D). Besides nucleotides such as ATP, citrate is also known to chelate free Mg^2+. Since ATP is cell impermeable, citrate (5 mM) was applied and intracellular Mg^2+ mobilization monitored. […] To exclude the possibility that acidic pH of medium by lactate could alter membrane polarization, the pH was normalized. Additionally, the inventors also tested whether both sodium lactate as well as lactic acid induce mitochondrial Mg^2+ uptake. Consistent with sodium form of lactate, lactic acid also elicited a rapid ER depletion followed by mitochondrial Mg^2+ influx indicating a lactate role as an activator of Mg^2+ dynamics. Thus, natural metabolite, lactate rapidly mobilizes ER Mg^2+ which led to cytosolic elevation resulting in activation mitochondrial Mg^2+ uptake.
Mitochondrial Mg^2+ Transporter is Temperature Sensitive. […] To assess optimal concentration of lactate required to trigger Mg^2+ depletion from ER compartment and mitochondrial Mg^2+ uptake, both ER-depletion and mitochondrial Mg^2+ uptake was measured in hepatocytes at 37° C. […] However, a consistent stronger response was perceived at 5 mM lactate stimulation (FIG. 2A and 2B). During these studies depletion of ER Mg^2+ was noticed at 37° C. and room temperature (25° C.) upon 5 mM lactate stimulation (FIG. 2C). Remarkably, mitochondrial Mg^2+ uptake was higher at 37° C. and had no effect at 25° C. showing a temperature sensitivity (FIG. 2D). Based on this experimental evidence, a wide range of temperatures were tested. To determine the temperature responsiveness, primary hepatocytes were kept between 25° C.-40° C. and cells were stimulated with 5 mM lactate. […] (FIG. 2F). Intriguingly, the lactate response was not seen at 25° C. or 30° C. (FIG. 2F).
ER-Dependent Efflux of Free Mg^2+ Promotes Mitochondrial Mg^2+ Uptake. […] Since extracellular delivery of lactate rapidly induces ER-depletion and subsequent mitochondrial uptake, it was asked whether rapid influx of lactate regulates this mechanism. Most mammalian cells utilize monocarboxylate transporters (MCT1-4) for plasma membrane lactate entry. To test this, primary hepatocytes were treated with MCT1 or MCT1/2 inhibitors for 60 minutes. […]

MEFs = assay: Intracellular Ca2+ and Mg2+ dynamics in MEFs (Fluo-4-AM, Mag green-AM); assay type: cell-based
Source text: Targeted Metabolite Screen Identifies Lactate as activator agonist for Mitochondrial Mg^2+ Uptake. To search for agonists that promote mitochondrial Mg^2+ ([Mg^2+]m) uptake, the inventors developed a cell-based confocal fluorescence imaging. As an initial feature, the inventors tested whether GPCR agonist-induced second messengers promote Mg^2+ dynamics. To discriminate intracellular Ca^2+ and Mg^2+ dynamics, MEFs were loaded with cell permeant Ca^2+ indicator, Fluo-4-AM or Mg^2+ indicator Mag green-AM followed by GPCR agonist, thrombin stimulation. […] It is established that intracellular Ca^2+ dynamics could be monitored using a wide range of fluorescent dyes or genetically encoded Ca^2+ indicators. Conversely, Mg^2+ sensitive indicators are very limited due to either lack of agonists or robust dynamic nature. To identify the agonist, primary murine hepatocytes were loaded with [Mg^2+]i indicator, cell permeant Mag Green-AM (5 μM). […] To confirm that lactate-induced Mag-Green signals are indeed measured from mitochondrial compartment, hepatocytes were simultaneously loaded with mitochondrial marker Mito-tracker Red and Mag-Green-AM (FIG. 1C-1F). […] Since ATP is cell impermeable, citrate (5 mM) was applied and intracellular Mg^2+ mobilization monitored. […]

## [Cl][Co][Cl] [CoCl2, cobalt chloride, reference compound]
HIF-1α; hepatocytes
  HIF-1α stabilization: promoted HIF-α stabilization

## COC(=O)CNC(=O)C(=O)OC [DMOG, reference compound]
HIF-1α; hepatocytes
  HIF-1α stabilization: promoted HIF-α stabilization

## Cc1nc(C(=O)NCC(=O)O)c(O)c2ccc(Oc3ccccc3)cc12 [FG-4592, reference compound]
HIF-1α; hepatocytes
  HIF-1α stabilization: promoted HIF-α stabilization

## [Cl-].[Cl-].[Mg+2] [Mg^2+]
HIF-1α; 10 mM, normoxia
  HIF-1α stabilization at high levels: sufficient to promote low levels of HIF-1α stabilization

## N#C/C(=C\c1cn(-c2ccccc2)c2ccccc12)C(=O)O [UK5099, reference compound]
HIF-1α; hepatocytes
  effect of blockade of mitochondrial pyruvate entry on HIF-1α stabilization: did not prevent HIF-1α stabilization

## O=C(O)CC(O)(CC(=O)O)C(=O)O [citrate]
[1]; 5 mM
  effect on mitochondrial and ER Mg^2+ signals: partly chelated both mitochondrial and ER Mg^2+ signals

## CC(O)C(=O)O (stereo not shown) [lactate]
[1]; 5 mM, 25° C. or 30° C.
  lactate-induced mitochondrial Mg^2+ uptake: not seen
[1]; 5 mM, 25° C.-40° C.
  Lactate-induced ER Mg^2+ depletion: seen at all the indicated temperature range
[1]; 5 mM, 34° C. and 40° C.
  lactate-induced mitochondrial Mg^2+ uptake: sub-optimal
[1]; 5 mM, 37° C.
  lactate-induced mitochondrial Mg^2+ uptake: maximal
[1]; hepatocytes, 37° C.
  concentration that promotes ER depletion and partial uptake of Mg^2+ into mitochondria: ≥ 2 mM
[1]; metabolite screen, primary murine hepatocytes
  ER Mag-Green signal depletion and mitochondrial Mg^2+ uptake: rapid and robust depletion of ER Mag-Green signal followed by a subsequent elevation in the mitochondria

## CC(O)C(=O)O (stereo not shown) [lactic acid]
[1]; 5 mM
  lag time to mitochondrial elevation of Mag Green signal: ~25 s

## CC(O)C(=O)[O-].[Na+] (stereo not shown) [sodium lactate]
[1]; 5 mM
  lag time to mitochondrial elevation of Mag Green signal: ~25 s

## thrombin
MEFs; Fluo-4-AM
  cytosolic Ca^2+ mobilization: rapidly elicited cytosolic Ca^2+ mobilization
MEFs; Mag green-AM
  intracellular Mg^2+ dynamics: absent
